In patent US9650348B2, “Triazines with suitable spacers for treatment and/or prevention of HIV infections” (Universiteit Antwerpen, priority 2012, dated 2017):
Read-outs that look alike come from different tables or passages of the source.

Experiments:
HIV-1 BaL = experiment: TZM-bl antiviral assay, wild type HIV-1 Ba-L; assay type: cell-based; details: Human immunodeficiency virus 1, BAL, read-out: Antiviral activity-wild type viruses EC50 TZM-bI Ba-L
Description: (§1) The JC53-BL cell line, also known as the TZM-bl cell line (NIH AIDS Research and Reference Reagent Program, Germantown, USA), was used for the evaluation of anti-HIV activity. TZM-bl cells were cultured in Dulbecco's […] (DMEM) (Lonza) containing 10% heat-inactivated FBS and 50 μg gentamycin/mL at 37° C. in a humidified 5% CO2, 95% air environment. Twice a week the cells were treated with 0.25% trypsin-1 mM EDTA (Lonza) for 10 minutes. The resulting cell suspension was washed with an equivalent amount of TZM-bl medium and subsequently seeded in a T75 culture flask (Greiner Bio-One, Germany) at 10^6 cells in 20 mL medium.
(§2) The antiviral activity of the newly designed compounds was measured by pre-incubating ten thousand TZM-bl cells (at 10^5 cells/mL in culture medium supplemented with 30 μg/mL DEAE dextran) in a 96-well plate for 30 minutes at 37° C., 5% CO2 in the presence or absence of serial dilutions of the respective compound. Subsequently, 200 TCID50 of HIV-1 BaL was added to each well and cultures were incubated for 48 hours before quantifying luciferase activity, using a TriStar LB941 luminometer (Berthold Technologies GmbH & Co. KG, Bad Wildbad, Germany). Each condition was evaluated in triplicate wells and in at least two independent experiments. The antiviral activity of the compound was expressed as the percentage of viral inhibition compared to the untreated controls and subsequently plotted against the compound concentration.
(§3) The target compounds are evaluated for their anti-HIV-1 activity and cytotoxicity. In a primary screen, the anti-HIV activity against the laboratory strain Ba-L and against a primary subtype C isolate was determined in the TZM-bl cell line. Cellular toxicity on TZM-bl cells was evaluated using WST-1. […] In addition, the activity against NNRTI-resistant viruses (V106A, Y181C, L100I+K103N, L100I+E138K+T369I and K101E+K103N+V108VI+V179M+Y181C+E138Q) was tested. Diarylpyrimidines (DAPY) TMC120, TMC125 and TMC278 were used as reference compounds.

VI829 L100I+E138K+T369I = experiment: Antiviral activity, NNRTI-resistant virus L100I+E138K+T369I; assay type: cell-based, HIV-1; details: VI829, ** = L1001 + E138K + T3691
Description: (§4) The target compounds are evaluated for their anti-HIV-1 activity and cytotoxicity. In a primary screen, the anti-HIV activity against the laboratory strain Ba-L and against a primary subtype C isolate was determined in the TZM-bl cell line. Cellular toxicity on TZM-bl cells was evaluated using WST-1. Based on the primary screening results, the target compound was further evaluated for anti-HIV activity in different primary cells, including peripheral blood mononuclear cells, dendritic cells and CD4+ T lymphocytes. In addition, the activity against NNRTI-resistant viruses (V106A, Y181C, L100I+K103N, L100I+E138K+T369I and K101E+K103N+V108VI+V179M+Y181C+E138Q) was tested. Diarylpyrimidines (DAPY) TMC120, TMC125 and TMC278 were used as reference compounds.

VI829 = experiment: TZM-bl antiviral assay, wild type VI829 (primary subtype C isolate); assay type: cell-based, HIV-1; details: read-out: Antiviral activity-wild type viruses EC50 TZM-bI VI829
Description: as §1, §2, §3

HIV-1 Ba-L [1] = experiment: Antiviral activity in peripheral blood mononuclear cells (PBMC), Ba-L; assay type: cell-based; details: Human immunodeficiency virus 1, BAL, Ba-L wild type, read-out: Antiviral activity-wild type viruses EC50 PBMC Ba-L
HIV-1 Ba-L [2] = experiment: Antiviral activity in dendritic cells / CD4+ T lymphocytes (DC/T4), Ba-L; assay type: cell-based; details: Human immunodeficiency virus 1, BAL; DC/T4, Ba-L wild type; read-out: Antiviral activity-wild type viruses EC50 DC/T4 Ba-L
VI829 Y181C = experiment: Antiviral activity, NNRTI-resistant virus Y181C; assay type: cell-based, HIV-1; details: for EC50: Human immunodeficiency virus 1, read-out: Antiviral activity-NNRTI-resistant viruses EC50 VI829 Y181C; for FC (Y181C): VI829 Y181C
Description: as §3

VI829 L100I+K103N = experiment: Antiviral activity, NNRTI-resistant virus L100I+K103N; assay type: cell-based, HIV-1; details: for EC50: Human immunodeficiency virus 1, read-out: Antiviral activity-NNRTI-resistant viruses EC50 VI829 L100I+K103N; for FC (L100I+K103N): VI829 L100I+K103N
Description: as §3

in vitro = assay type: cell-based; details: human, Cytotoxicity CC50 TZM-bI
Source text: The Water Soluble Tetrazolium-1 (WST-1) Cell Proliferation Assay is a colorimetric assay for the measurement of cell proliferation and viability. The assay is based on the cleavage of the tetrazolium salt WST-1 (4-[3-(4-iodophenyl)-2-(4-nitrophenyl)-2H-5-tetrazolio]-1,3-benzene disulfonate) to a formazan dye by a complex cellular mechanism. This bioreduction is largely dependent on the glycolytic production of NAD(P)H in viable cells. Therefore, the amount of formazan dye formed correlates directly to the number of viable cells in the culture, and can be quantified by measuring the absorbance at 450 nm in a multiwell plate reader. The greater the number of viable cells, the greater the amount of formazan dye produced following the addition of WST-1. Cytotoxicity of each compound was evaluated using this WST-1 viability assay, according to the manufacturer's instructions (Roche, Vilvoorde, Belgium).
Briefly, ten thousand TZM-bl cells were seeded in a 96-well plate and cultured for 2 days in the presence of a serial dilution of compound. After this 48 h exposure, Cell Proliferation Reagent, WST-1, was added and absorbance at 450 nm was quantified after 90 min using a microplate reader (BioRad, Tokio, Japan). Each compound was tested in three replicate wells and in at least two independent experiments.
as §3

Ba-L V106A = experiment: Antiviral activity, NNRTI-resistant virus V106A; assay type: cell-based, HIV-1; details: for FC (V106A): Ba-L V106A; for EC50: Human immunodeficiency virus 1, BAL, read-out: Antiviral activity-NNRTI-resistant viruses EC50 Ba-L V106A
Description: as §3

[3] = system: Ba-L K101E + K103N + V108VI + V179M + Y181C + E138Q; experiment: Antiviral activity, NNRTI-resistant virus K101E+K103N+V108VI+V179M+Y181C+E138Q; assay type: cell-based, HIV-1; details: for FC (*): Ba-L, * = K101E + K103N + V108VI + V179M + Y181C + E138Q; for EC50: Human immunodeficiency virus 1, BAL, read-out: Antiviral activity-NNRTI-resistant viruses EC50 Ba-L *
Description: as §4

[4] = Human immunodeficiency virus 1, TZM-bl cells, VI829 wild type

Compound	EC50 (HIV-1 BaL; TZM-bl cells, Ba-L wild type) [nM]	FC (**) (VI829 L100I+E138K+T369I)	EC50 (VI829; [4]) [nM]	EC50 (HIV-1 Ba-L [1]) [nM]	EC50 (HIV-1 Ba-L [2]) [nM]	EC50 (VI829 Y181C) [nM]	FC (Y181C) (VI829 Y181C)	EC50 (VI829 L100I+K103N) [nM]	FC (L100I+K103N) (VI829 L100I+K103N)	CC50 at 48 h (in vitro) [nM]	FC (V106A) (Ba-L V106A)	EC50 (Ba-L V106A) [nM]	FC (*) [3]	EC50 [3] [nM]	EC50 (HIV-1 BaL; TZM-bl) [nM]	EC50 (VI829; Human immunodeficiency virus 1, TZM-bl) [nM]
Cc1cc(C=CC#N)cc(C)c1Nc1nc(N)nc(Nc2ccc(C#N)cc2)n1 [T1, 4-(4-amino-6-(4-(2-cyanovinyl)-2,6-dimethylphenylamino)-1,3,5-triazin-2-ylamino)benzonitrile]	1.3	210	1.1	1.8	0.7	4	3	15	10	34600	1	1.7	18	22.8	–	–
CNc1nc(Nc2ccc(C#N)cc2)nc(Nc2c(C)cc(C=CC#N)cc2C)n1 [T4, 4-((4-((4-(2-cyanovinyl)-2,6-dimethylphenyl)amino)-6-(methylamino)-1,3,5-triazin-2-yl)amino)benzonitrile]	1.7	–	–	–	–	–	–	–	–	5910	–	–	39	66	–	–
Cc1cc(C=CC#N)cc(C)c1Nc1nc(Nc2ccc(C#N)cc2)nc(N(C)C)n1 [T5, 4-((4-((4-(2-cyanovinyl)-2,6-dimethylphenyl)amino)-6-(dimethylamino)-1,3,5-triazin-2-yl)amino)benzonitrile]	5.8	31	4.4	–	–	27	6	74	17	8060	2	12	78	455	–	–
Cc1cc(C=CC#N)cc(C)c1Nc1nc(Nc2ccc(C#N)cc2)nc(N2CCCCC2)n1 [T7, 4-((4-((4-(2-cyanovinyl)-2,6-dimethylphenyl)amino)-6-(piperidin-1-yl)-1,3,5-triazin-2-yl)amino)benzonitrile]	18	>50	19	–	–	221	12	> 1000	>50	> 100000	7	126	>55	> 1000	–	–
Cc1cc(C=CC#N)cc(C)c1Nc1nc(Nc2ccc(C#N)cc2)nc(N2CCOCC2)n1 [T8, 4-((4-((4-(2-cyanovinyl)-2,6-dimethylphenyl)amino)-6-morpholino-1,3,5-triazin-2-yl)amino)benzonitrile]	7.1	–	–	–	–	–	–	–	–	11400	–	–	89	634	–	–
Cc1cc(C=CC#N)cc(C)c1Nc1nc(Nc2ccc(C#N)cc2)nc(N2CCN(C)CC2)n1 [T9, 4-((4-((4-(2-cyanovinyl)-2,6-dimethylphenyl)amino)-6-(4-methylpiperazin-1-yl)-1,3,5-triazin-2-yl)amino)benzonitrile]	8.5	–	–	–	–	–	–	–	–	21200	–	–	37	316	–	–
N#CC=Cc1cc(F)c(Nc2nc(N)nc(Nc3ccc(C#N)cc3)n2)c(F)c1 [T10, 4-((4-amino-6-((4-(2-cyanovinyl)-2,6-difluorophenyl)amino)-1,3,5-triazin-2-yl)amino)benzonitrile]	0.53	–	–	–	–	–	–	–	–	21400	–	–	1113	590	–	–
Cc1cc(C=CC#N)cc(C)c1Oc1nc(N)nc(Nc2ccc(C#N)cc2)n1 [T11, 4-((4-amino-6-(4-(2-cyanovinyl)-2,6-dimethylphenoxy)-1,3,5-triazin-2-yl)amino)benzonitrile]	1.1	167	0.64	–	–	4.1	6	17	27	19100	2	2.5	56	62	–	–
CNc1nc(Nc2ccc(C#N)cc2)nc(Oc2c(C)cc(C=CC#N)cc2C)n1 [T12, 4-((4-(4-(2-cyanovinyl)-2,6-dimethylphenoxy)-6-(methylamino)-1,3,5-triazin-2-yl)amino)benzonitrile]	1.6	44	1.6	–	–	7.4	5	24	15	20000	4	6.5	48	77	–	–
Cc1cc(C=CC#N)cc(C)c1Oc1nc(Nc2ccc(C#N)cc2)nc(N(C)C)n1 [T13, 4-((4-(4-(2-cyanovinyl)-2,6-dimethylphenoxy)-6-(dimethylamino)-1,3,5-triazin-2-yl)amino)benzonitrile]	3.4	–	–	–	–	–	–	–	–	7850	–	–	231	786	–	–
Cc1cc(C=CC#N)cc(C)c1Oc1nc(Nc2ccc(C#N)cc2)nc(N2CCCCC2)n1 [T14, 4-((4-(4-(2-cyanovinyl)-2,6-dimethylphenoxy)-6-(piperidin-1-yl)-1,3,5-triazin-2-yl)amino)benzonitrile]	21	–	–	–	–	–	–	–	–	> 100000	–	–	>47	> 1000	–	–
Cc1cc(C#N)cc(C)c1Oc1nc(Nc2ccc(C#N)cc2)nc(N)c1Br [TMC125, Etravirine, reference compound]	–	62	–	5.9	1.8	7.6	5	14	9	–	1	1.6	51	76	1.5	1.5
